Measurements: patent US20230086865A1, “ANTI-INFECTIVE BICYCLIC PEPTIDE CONJUGATES” (priority 2020, published 2023)
In brackets after ≈: the same amount, converted by molar mass.

Assays:
[1] = tested on: A. baumannii AR0275; experiment: MIC follow-on study; type: cell-based; settings: Acinetobacter baumannii
Description: (§1) Minimum inhibitory concentration (MIC) assays were carried out using E. coli strains: GKCW101; GKCW102 and ATCC25922 using the method described by Antimicrobial Agents and Chemotherapy December 2016 Volume 60 Number 12 pages 7372-7381 and CLSI, 2020. Performance standards for antimicrobial susceptibility testing. Clinical Lab Standards Institute.
(§2) As a follow-on study, the MIC of BCY13246 was measured against a range of bacterial targets and compared with the MIC for the constituent bicyclic peptide ([…]) and carrier peptide ([…]) alone along with existing anti-microbial agents meropenem and levofloxacin. […].

[2] = tested on: C. freundii AR0116; experiment: MIC follow-on study; type: cell-based; settings: Citrobacter freundii
Description: as §1, §2

[3] = tested on: E. cloacae AR0032; experiment: MIC follow-on study; type: cell-based; settings: Enterobacter cloacae
Description: as §1, §2

[4] = tested on: E. cloacae AR0038; experiment: MIC follow-on study; type: cell-based; settings: Enterobacter cloacae
Description: as §1, §2

[5] = tested on: E. cloacae KPC114; experiment: MIC follow-on study; type: cell-based; settings: Enterobacter cloacae
Description: as §1, §2

[6] = tested on: E. coli ATCC BAA-2469; experiment: MIC follow-on study; type: cell-based; settings: Escherichia coli, ATCCBAA2469
Description: as §1, §2

[7] = tested on: E. coli NCTC 13441; experiment: MIC follow-on study; type: cell-based; settings: Escherichia coli, NCTC13441
Description: as §1, §2

[8] = tested on: K. pneumoniae ATCC 700603; experiment: MIC follow-on study; type: cell-based; settings: Klebsiella pneumoniae, ATCC700603
Description: as §1, §2

[9] = tested on: K. pneumoniae KPNIH1; experiment: MIC follow-on study; type: cell-based; settings: Klebsiella pneumoniae
Description: as §1, §2

[10] = tested on: P. mirabilis AR159; experiment: MIC follow-on study; type: cell-based; settings: Proteus mirabilis
Description: as §1, §2

[11] = tested on: E. coli UTI89; experiment: MIC follow-on study; settings: Escherichia coli
[12] = tested on: K. pneumoniae ATCC 43816; experiment: MIC follow-on study; settings: Klebsiella pneumoniae, ATCC43816
[13] = tested on: K. pneumoniae B454; experiment: MIC follow-on study; settings: Klebsiella pneumoniae
[14] = tested on: E. cloacae B173; experiment: MIC follow-on study; settings: Enterobacter cloacae
[15] = tested on: P. mirabilis ATCC 43071; experiment: MIC follow-on study; settings: Proteus mirabilis, ATCC43071
[16] = tested on: C. freundii B121; experiment: MIC follow-on study; settings: Citrobacter freundii
[17] = tested on: A. baumannii NCTC 12156; experiment: MIC follow-on study; settings: Acinetobacter baumannii, NCTC12156
[18] = tested on: E. coli ATCC25922; experiment: Minimum inhibitory concentration (MIC) assay; settings: Escherichia coli
[19] = tested on: P. aeruginosa NCTC 13437; experiment: MIC follow-on study; type: cell-based; settings: Pseudomonas aeruginosa, NCTC13437
Description: as §1, §2

[20] = tested on: P. aeruginosa ATCC 27853; experiment: MIC follow-on study; settings: Pseudomonas aeruginosa, ATCC27853

For `C[C@H]1COc2c(N3CCN(C)CC3)c(F)cc3c(=O)c(C(=O)O)cn1c23` [Levofloxacin, levofloxacin], the MIC [1] was greater than 2 µg/mL, the MIC [2] was greater than 2 µg/mL and the MIC [3] was 0.5 µg/mL (≈ 1.38 µM). It also gave an MIC [4] greater than 2 µg/mL, an MIC [5] of 0.5 µg/mL (≈ 1.38 µM) and an MIC [6] greater than 2 µg/mL. The MIC [7] was greater than 2 µg/mL, the MIC [8] was 0.5 µg/mL (≈ 1.38 µM) and the MIC [9] was greater than 2 µg/mL. For the same compound, the MIC [10] was 2 µg/mL (≈ 5.53 µM), the MIC [11] was 0.03 µg/mL (≈ 0.083 µM) and the MIC [12] was 0.06 µg/mL (≈ 0.166 µM). For the same compound, the MIC [13] was greater than 2 µg/mL, the MIC [14] was 0.03 µg/mL (≈ 0.083 µM) and the MIC [15] was 0.06 µg/mL (≈ 0.166 µM). For the same compound, the MIC [16] was 0.25 µg/mL (≈ 0.692 µM), the MIC [17] was 0.25 µg/mL (≈ 0.692 µM) and the MIC [18] was 0.016 µg/mL (≈ 0.0443 µM).

`C[C@@H](O)[C@H]1C(=O)N2C(C(=O)O)=C(S[C@@H]3CN[C@H](C(=O)N(C)C)C3)[C@H](C)[C@H]12` [Meropenem, meropenem] was tested, and the MIC [1] was greater than 2 µg/mL, the MIC [2] was greater than 2 µg/mL and the MIC [3] was 0.25 µg/mL (≈ 0.652 µM). The MIC [4] was greater than 2 µg/mL, the MIC [5] was greater than 2 µg/mL and the MIC [6] was greater than 2 µg/mL. It also gave an MIC [7] of 0.016 µg/mL (≈ 0.0417 µM), an MIC [8] of 0.03 µg/mL (≈ 0.0782 µM) and an MIC [9] greater than 2 µg/mL. It also gave an MIC [19] greater than 2 µg/mL, an MIC [10] greater than 2 µg/mL and an MIC [11] of 0.016 µg/mL (≈ 0.0417 µM). For the same compound, the MIC [12] was 0.03 µg/mL (≈ 0.0782 µM), the MIC [13] was 0.03 µg/mL (≈ 0.0782 µM) and the MIC [14] was 0.03 µg/mL (≈ 0.0782 µM). It also gave an MIC [15] of 0.06 µg/mL (≈ 0.156 µM), an MIC [16] of 0.03 µg/mL (≈ 0.0782 µM) and an MIC [20] of 0.5 µg/mL (≈ 1.3 µM). For the same compound, the MIC [17] was 1 µg/mL (≈ 2.61 µM) and the MIC [18] was 0.016 µg/mL (≈ 0.0417 µM).
